We go through 16 compounds from PubChem BioAssay (NCI).

Each structure is given as a SMILES string.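 1) Cells in 96-well plates. 2) Compound, 48 h, 5 concentrations. 3) Linear interpolation between surrounding doses. 4) Unreached endpoint = highest concentration. TGI: concentration producing complete growth inhibition.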 Where a SMILES comes first, the peptide text is derived from it. The star is where a group is joined. Boc = CC(C)(C)OC(=O)*

Among the test systems are OVCAR-8 ovarian; T-47D breast; U251 CNS; ACHN renal; MDA-MB-435; DU-145 prostate; HT29 colon; SF-539 CNS; A498 renal; RXF 393 renal.
Common to all, as to test: NCI anticancer screen, dose series, 48 h

Turning to `CCC12CCCN(Cc3ccccc3)C1c1c([nH]c3ccccc13)C(C(=O)OC)C2` (stereo not given), the TGI in the assay with OVCAR-8 ovarian, with T-47D breast, in the assay with U251 CNS, in the assay on ACHN renal, with MDA-MB-435 and in the assay on DU-145 prostate was over 10 µM each time. Besides, the TGI in the assay with HT29 colon and in the assay with SF-539 CNS was over 10 µM throughout.
Regarding `COc1cc2c(cc1OC)C(C(CO)CO)N(CC(O)CCl)CC2` (stereo not given), the TGI with A498 renal, in the assay on OVCAR-8 ovarian, with U251 CNS, in the assay with ACHN renal, in the assay on HT29 colon and in the assay with SF-539 CNS was over 100 µM each time.
As for `COC(=O)C(Cc1c[nH]c2ccccc12)NC(=O)C(Cc1c[nH]c2ccccc12)NC(=O)C(Cc1c[nH]c2ccccc12)NC(=O)C(Cc1c[nH]c2ccccc12)NC(=O)C(Cc1c[nH]c2ccccc12)NC(=O)C(Cc1c[nH]c2ccccc12)NC(=O)OC(C)(C)C` (stereo not given) (Boc-WWWWWW-OMe; configuration not given here), the TGI in the assay with OVCAR-8 ovarian, in the assay on T-47D breast, in the assay on U251 CNS, with ACHN renal, in the assay on MDA-MB-435 and with DU-145 prostate was over 100 µM throughout. This compound had a TGI in the assay with HT29 colon of over 100 µM.
As for `OC(c1cc2ccccc2o1)c1cc2ccccc2s1` (stereo not given), the TGI in the assay with RXF 393 renal, with OVCAR-8 ovarian, in the assay with T-47D breast, in the assay on U251 CNS, in the assay on ACHN renal and in the assay on MDA-MB-435 was over 10 µM in each case. The TGI with DU-145 prostate, in the assay on HT29 colon and in the assay on SF-539 CNS was over 10 µM throughout.
As to `CCOC(=O)c1cc(-c2cc(OC)c(OC)c([N+](=O)[O-])c2)c([N+](=O)[O-])n1C`, the TGI in the assay with RXF 393 renal is over 10 µM; in the assay on OVCAR-8 ovarian, over 10 µM; in the assay on U251 CNS, over 10 µM; in the assay on ACHN renal, over 10 µM; with MDA-MB-435 it was 4.72 µM; in the assay with HT29 colon it was over 10 µM. The compound also gave a TGI in the assay on SF-539 CNS of over 10 µM.
Consider `Nc1ncnc2c1nnn2C1C=CC(COS(N)(=O)=O)C1` (stereo not given), for which the TGI in the assay with RXF 393 renal was found to be 86 µM; in the assay with OVCAR-8 ovarian, 55 µM; in the assay on T-47D breast, 97.7 µM; in the assay with U251 CNS, 57.7 µM; in the assay on ACHN renal it was 49.1 µM; with MDA-MB-435 it was 41.3 µM. Besides, the TGI is over 100 µM in the assay on DU-145 prostate, 98.5 µM in the assay with HT29 colon and 7.39 µM in the assay with SF-539 CNS.
Regarding `CC(C)/C(Cl)=N\OC(=O)Nc1ccccc1F`, the TGI in the assay with RXF 393 renal is 9.97 µM; in the assay on A498 renal, 28.3 µM; in the assay on OVCAR-8 ovarian, 31.4 µM; with T-47D breast, 49.5 µM; in the assay with U251 CNS, 31.1 µM; with ACHN renal, 24.9 µM. Further, the TGI with DU-145 prostate is 30 µM; with HT29 colon it was 54.3 µM; with SF-539 CNS, 32.1 µM.
As for `O=C1Nc2ccccc2C12CCNC2Cc1ccccc1` (stereo not given), the TGI in the assay with A498 renal, in the assay with OVCAR-8 ovarian, with U251 CNS, in the assay with ACHN renal, in the assay on HT29 colon and with SF-539 CNS was over 100 µM throughout.
Turning to `COC(=O)C1=C(C(=O)OC)C(C(=O)c2ccc(Br)cc2)N2N=C(c3ccc(Cl)cc3)C=CC12` (stereo not given), the TGI with A498 renal, in the assay on OVCAR-8 ovarian, with U251 CNS, with ACHN renal, in the assay on MDA-MB-435 and in the assay on DU-145 prostate was over 100 µM throughout.
As for `CC(=O)OCCOCn1c2c(c(=S)[nH]c1=O)CCC2`, the TGI in the assay with RXF 393 renal, with OVCAR-8 ovarian, in the assay with U251 CNS, with ACHN renal, in the assay with MDA-MB-435 and in the assay on DU-145 prostate was over 100 µM in each case. In addition, the TGI in the assay on HT29 colon and with SF-539 CNS was over 100 µM each time.
As for `COc1ccc(-c2cc(=O)c3cc4c(cc3[nH]2)OCO4)cc1OC`, the TGI with RXF 393 renal, in the assay on OVCAR-8 ovarian, with U251 CNS, in the assay on ACHN renal, with HT29 colon and in the assay on SF-539 CNS was over 100 µM throughout.
`COC(=O)/C(=C\Nc1cccc(C)n1)S(=O)(=O)c1ccc(C)cc1`: the TGI in the assay on RXF 393 renal, in the assay with OVCAR-8 ovarian, in the assay with T-47D breast, in the assay on U251 CNS, in the assay on ACHN renal and in the assay with MDA-MB-435 was over 100 µM each time. Also, the TGI in the assay with DU-145 prostate, in the assay with HT29 colon and in the assay on SF-539 CNS was over 100 µM in each case.
Turning to `NC(CCCC(N)P(=O)(O)c1ccccc1)P(=O)(O)c1ccccc1` (stereo not given), the TGI with RXF 393 renal, in the assay with A498 renal, with OVCAR-8 ovarian, in the assay on U251 CNS, with ACHN renal and in the assay with HT29 colon was over 261 µM throughout. In addition, the TGI in the assay with SF-539 CNS is over 261 µM.
In the case of `O=C(O)c1cc2ccccc2c(N=Nc2ccc(S(=O)(=O)Nc3nccs3)cc2)c1O`, the TGI in the assay on RXF 393 renal, in the assay with OVCAR-8 ovarian, in the assay on T-47D breast, with U251 CNS, in the assay on ACHN renal and with MDA-MB-435 was over 100 µM in each case. Also, the TGI in the assay on DU-145 prostate, in the assay with HT29 colon and in the assay with SF-539 CNS was over 100 µM throughout.
Turning to `Oc1ccc(-c2nc(-c3cccnc3)c(-c3ccc(Cl)cc3)[nH]2)cc1O`, the TGI in the assay on RXF 393 renal is 25.6 µM; in the assay with OVCAR-8 ovarian, 30.2 µM; with T-47D breast it was 37.9 µM; in the assay on U251 CNS, 26.4 µM; with ACHN renal, 26.1 µM; with MDA-MB-435, 30.3 µM. Also, the TGI with DU-145 prostate was 90.8 µM; with HT29 colon it was 27.7 µM.
Take `Cc1nc(Nc2ccc(Cl)cc2)sc1C(=O)NNc1ccc([N+](=O)[O-])cc1[N+](=O)[O-]`: the TGI was found to be 30.7 µM in the assay on RXF 393 renal; 30.6 µM in the assay with A498 renal; 46.5 µM with OVCAR-8 ovarian; 29.5 µM in the assay on U251 CNS; 40.9 µM in the assay on ACHN renal; 32 µM with SF-539 CNS.
